Test results as given in patent US7026349B2, “Sulfonamides” (SmithKline Beecham Corporation, priority 2001, dated 2006).
pKi: −log10 of the molar value.

Target: T1, human and rat GPR-14 (UniProt Q9UKP6)
T1 sequence (Q9UKP6 1-389): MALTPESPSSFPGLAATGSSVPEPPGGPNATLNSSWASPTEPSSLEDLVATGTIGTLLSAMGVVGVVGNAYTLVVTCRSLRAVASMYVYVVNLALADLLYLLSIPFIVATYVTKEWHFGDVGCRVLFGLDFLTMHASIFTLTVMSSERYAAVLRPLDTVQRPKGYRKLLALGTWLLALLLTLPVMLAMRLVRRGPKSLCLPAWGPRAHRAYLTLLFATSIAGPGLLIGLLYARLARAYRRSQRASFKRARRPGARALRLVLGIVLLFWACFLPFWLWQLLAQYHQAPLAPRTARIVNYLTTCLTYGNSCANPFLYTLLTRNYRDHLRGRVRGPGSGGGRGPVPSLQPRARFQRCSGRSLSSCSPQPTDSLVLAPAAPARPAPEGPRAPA
Test: Radioligand binding ([125I] h-U-II) to HEK-293 cell membranes containing cloned GPR-14
Conditions: stable cloned GPR-14, 200 pM [125I] h-U-II, species of receptor not given

pKi: 6.57
SMILES: COc1cc(Br)c(S(=O)(=O)Nc2ccc(Cl)c(O[C@H]3CCN(C)C3)c2)cc1OC [Example 10, 2-Bromo-N-[4-chloro-3-((S)-1-methyl-pyrrolidin-3-yloxy)-phenyl]-4,5-dimethoxy-benzenesulfonamide]
